Assay results published in BigSolDB 2.1.

With `CCS(=O)(=O)O.COC(=O)c1ccc2c(C(=Nc3ccc(N(C)C(=O)CN4CCN(C)CC4)cc3)c3ccccc3)c(O)[nH]c2c1` the solubility (mole fraction) (in DMAc, 278.15 K) was 0.000745, the solubility (mole fraction) (in DMAc, 283.15 K) was 0.000878 and the solubility (mole fraction) (in DMAc, 288.15 K) was 0.0011. It also gave a solubility (mole fraction) (in DMAc, 293.15 K) of 0.00129, a solubility (mole fraction) (in DMAc, 298.15 K) of 0.00156 and a solubility (mole fraction) (in DMAc, 303.15 K) of 0.00186. For the same compound, the solubility (mole fraction) (in DMAc, 308.15 K) was 0.00214, the solubility (mole fraction) (in DMAc, 313.15 K) was 0.00258 and the solubility (mole fraction) (in DMAc, 318.15 K) was 0.00285. It also gave a solubility (mole fraction) (in DMAc, 323.15 K) of 0.00316, a solubility (mole fraction) (in DMF, 278.15 K) of 0.000994 and a solubility (mole fraction) (in DMF, 283.15 K) of 0.00129. The solubility (mole fraction) (in DMF, 288.15 K) was 0.00145, the solubility (mole fraction) (in DMF, 293.15 K) was 0.00165 and the solubility (mole fraction) (in DMF, 298.15 K) was 0.00182. The solubility (mole fraction) (in DMF, 303.15 K) was 0.00206, the solubility (mole fraction) (in DMF, 308.15 K) was 0.00239 and the solubility (mole fraction) (in DMF, 313.15 K) was 0.00271. It also gave a solubility (mole fraction) (in DMF, 318.15 K) of 0.00304, a solubility (mole fraction) (in DMF, 323.15 K) of 0.00336 and a solubility (mole fraction) (in acetone, 278.15 K) of 3.21e-06. It also gave a solubility (mole fraction) (in acetone, 283.15 K) of 4.13e-06, a solubility (mole fraction) (in acetone, 288.15 K) of 4.97e-06 and a solubility (mole fraction) (in acetone, 293.15 K) of 5.92e-06. It also gave a solubility (mole fraction) (in acetone, 298.15 K) of 6.97e-06, a solubility (mole fraction) (in acetone, 303.15 K) of 8.32e-06 and a solubility (mole fraction) (in acetone, 308.15 K) of 9.74e-06. For the same compound, the solubility (mole fraction) (in acetone, 313.15 K) was 1.08e-05, the solubility (mole fraction) (in acetone, 318.15 K) was 1.3e-05 and the solubility (mole fraction) (in acetone, 323.15 K) was 1.62e-05. The solubility (mole fraction) (in acetonitrile, 278.15 K) was 9.42e-06, the solubility (mole fraction) (in acetonitrile, 283.15 K) was 1.42e-05 and the solubility (mole fraction) (in acetonitrile, 288.15 K) was 1.75e-05. For the same compound, the solubility (mole fraction) (in acetonitrile, 293.15 K) was 2.17e-05, the solubility (mole fraction) (in acetonitrile, 298.15 K) was 2.89e-05 and the solubility (mole fraction) (in acetonitrile, 303.15 K) was 3.83e-05. The solubility (mole fraction) (in acetonitrile, 308.15 K) was 4.28e-05, the solubility (mole fraction) (in acetonitrile, 313.15 K) was 5.13e-05 and the solubility (mole fraction) (in acetonitrile, 318.15 K) was 6.02e-05. The solubility (mole fraction) (in acetonitrile, 323.15 K) was 6.85e-05, the solubility (mole fraction) (in dichloromethane, 278.15 K) was 0.000125 and the solubility (mole fraction) (in dichloromethane, 283.15 K) was 0.000148. It also gave a solubility (mole fraction) (in dichloromethane, 288.15 K) of 0.000161, a solubility (mole fraction) (in dichloromethane, 293.15 K) of 0.000175 and a solubility (mole fraction) (in dichloromethane, 298.15 K) of 0.000199. The solubility (mole fraction) (in dichloromethane, 303.15 K) was 0.00022, the solubility (mole fraction) (in dichloromethane, 308.15 K) was 0.00025 and the solubility (mole fraction) (in ethanol, 278.15 K) was 0.00015. It also gave a solubility (mole fraction) (in ethanol, 283.15 K) of 0.000179, a solubility (mole fraction) (in ethanol, 288.15 K) of 0.000214 and a solubility (mole fraction) (in ethanol, 293.15 K) of 0.000253. It also gave a solubility (mole fraction) (in ethanol, 298.15 K) of 0.000298, a solubility (mole fraction) (in ethanol, 303.15 K) of 0.00035 and a solubility (mole fraction) (in ethanol, 308.15 K) of 0.0004. It also gave a solubility (mole fraction) (in ethanol, 313.15 K) of 0.000473, a solubility (mole fraction) (in ethanol, 318.15 K) of 0.000546 and a solubility (mole fraction) (in ethanol, 323.15 K) of 0.000627. It also gave a solubility (mole fraction) (in isopropanol, 278.15 K) of 1.43e-05, a solubility (mole fraction) (in isopropanol, 283.15 K) of 1.93e-05 and a solubility (mole fraction) (in isopropanol, 288.15 K) of 2.57e-05. For the same compound, the solubility (mole fraction) (in isopropanol, 293.15 K) was 3.39e-05, the solubility (mole fraction) (in isopropanol, 298.15 K) was 4.44e-05 and the solubility (mole fraction) (in isopropanol, 303.15 K) was 5.75e-05. The solubility (mole fraction) (in isopropanol, 308.15 K) was 7.4e-05, the solubility (mole fraction) (in isopropanol, 313.15 K) was 0.0001 and the solubility (mole fraction) (in isopropanol, 318.15 K) was 0.000118. For the same compound, the solubility (mole fraction) (in isopropanol, 323.15 K) was 0.00015, the solubility (mole fraction) (in methanol, 278.15 K) was 0.00126 and the solubility (mole fraction) (in methanol, 283.15 K) was 0.00149. It also gave a solubility (mole fraction) (in methanol, 288.15 K) of 0.00169, a solubility (mole fraction) (in methanol, 293.15 K) of 0.00203 and a solubility (mole fraction) (in methanol, 298.15 K) of 0.00238. The solubility (mole fraction) (in methanol, 303.15 K) was 0.00281, the solubility (mole fraction) (in methanol, 308.15 K) was 0.00341 and the solubility (mole fraction) (in methanol, 313.15 K) was 0.00413. The solubility (mole fraction) (in methanol, 318.15 K) was 0.00467, the solubility (mole fraction) (in methanol, 323.15 K) was 0.00524 and the solubility (mole fraction) (in n-butanol, 278.15 K) was 1.21e-05. It also gave a solubility (mole fraction) (in n-butanol, 283.15 K) of 1.44e-05, a solubility (mole fraction) (in n-butanol, 288.15 K) of 1.82e-05 and a solubility (mole fraction) (in n-butanol, 293.15 K) of 2.33e-05. It also gave a solubility (mole fraction) (in n-butanol, 298.15 K) of 2.7e-05, a solubility (mole fraction) (in n-butanol, 303.15 K) of 3.54e-05 and a solubility (mole fraction) (in n-butanol, 308.15 K) of 4.5e-05. It also gave a solubility (mole fraction) (in n-butanol, 313.15 K) of 5.17e-05, a solubility (mole fraction) (in n-butanol, 318.15 K) of 7.26e-05 and a solubility (mole fraction) (in n-butanol, 323.15 K) of 8.92e-05. The solubility (mole fraction) (in n-propanol, 278.15 K) was 4.29e-05, the solubility (mole fraction) (in n-propanol, 283.15 K) was 6.92e-05 and the solubility (mole fraction) (in n-propanol, 288.15 K) was 8.1e-05. The solubility (mole fraction) (in n-propanol, 293.15 K) was 0.000103, the solubility (mole fraction) (in n-propanol, 298.15 K) was 0.000131 and the solubility (mole fraction) (in n-propanol, 303.15 K) was 0.000156. It also gave a solubility (mole fraction) (in n-propanol, 308.15 K) of 0.000207, a solubility (mole fraction) (in n-propanol, 313.15 K) of 0.000241 and a solubility (mole fraction) (in n-propanol, 318.15 K) of 0.000317. The solubility (mole fraction) (in n-propanol, 323.15 K) was 0.000384.
